From patent publication US11730720B2, “ALK5 inhibitors” (THERAVANCE BIOPHARMA R&D IP, LLC, priority 2018, dated 2023) come the findings set out here.

pKi: −log10 of the molar value.

In assay [1] the test system is TGF-β-stimulated SMAD3 phosphorylation in BEAS-2B cells. Description: Cellular ALK5 potency assay, inhibition of TGF-β stimulated pSMAD3 formation in BEAS-2B cells. Format: cell-based. The settings on record: Homo sapiens, inhibition of TGF-β (10 ng/mL) stimulated pSMAD3 formation, 1 hour compound incubation, read-out: BEAS2B pIC50 (converted). In outline:
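Phospho-SMAD3 was quantified by AlphaLISA in lysates of human lung epithelial BEAS-2B cells. Compound was added 1 h (37 °C, HEPES/BSA-supplemented HBSS) before a 30 min challenge with 10 ng/mL TGF-β. Values are pIC50 relative to stimulated cells without compound.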

In assay [2] the target is T1, recombinant human ALK5 (TGF-βR1) protein (Homo sapiens, UniProt P36897).
T1 construct: purchased Life Technologies PR9075A
T1 sequence (P36897 34-503): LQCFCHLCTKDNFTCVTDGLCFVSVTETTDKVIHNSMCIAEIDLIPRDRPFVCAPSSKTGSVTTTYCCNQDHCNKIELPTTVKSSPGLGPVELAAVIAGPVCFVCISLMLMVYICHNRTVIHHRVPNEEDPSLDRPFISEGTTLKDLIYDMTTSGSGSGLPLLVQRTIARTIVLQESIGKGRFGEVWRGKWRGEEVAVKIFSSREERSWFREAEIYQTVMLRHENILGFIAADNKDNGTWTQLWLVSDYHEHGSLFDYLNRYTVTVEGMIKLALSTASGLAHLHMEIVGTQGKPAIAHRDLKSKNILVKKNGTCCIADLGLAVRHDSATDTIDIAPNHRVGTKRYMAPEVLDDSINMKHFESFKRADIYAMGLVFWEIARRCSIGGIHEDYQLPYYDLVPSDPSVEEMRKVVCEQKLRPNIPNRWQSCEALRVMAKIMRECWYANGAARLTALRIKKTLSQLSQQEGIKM
In words: Biochemical ALK5 (TGF-βR1) assay to measure pKi (LANCE Ultra ULight kinase assay). The following applies: apparent pKi, converted from pIC50 using the Cheng-Prusoff equation. An outline of the steps: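 TR-FRET kinase format: compound dose range 10 μM–25 pM equilibrated 60 min with human ALK5 and ULight-labelled topoisomerase 2α peptide in HEPES/MgCl2 buffer pH 7.5 with DTT. Reaction started with ATP (125 μM stock, 5× final), 60 min at 37° C, stopped with EDTA/Eu-anti-phospho antibody; pKi derived from pIC50 via Cheng-Prusoff.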
On the technique in general: TR-FRET usually uses a lanthanide donor and a delayed reading to cut background.

On to `CNCCn1cc(-c2cnc3ccc(-c4c[nH]nc4-c4cc(O)ccc4C)nc3c2)cn1` [Compound 13-1, 4-methyl-3-(4-(7-(1-(2-(methylamino)ethyl)-1H-pyrazol-4-yl)-1,5-naphthyridin-2-yl)-1H-pyrazol-3-yl)phenol], for which, in assay [1], the IC50 is 200 to 1260 nM. Besides, the negative-log Ki (pKi) in assay [2] is 8.50 to 9.40.
Regarding `CNC1CCN(c2cnc3ccc(-c4c[nH]nc4-c4cccc(COC)c4)nc3c2)CC1` [Compound 14-1, 1-(6-(3-(3-(methoxymethyl)phenyl)-1H-pyrazol-4-yl)-1,5-naphthyridin-3-yl)-N-methylpiperidin-4-amine], the IC50 in assay [1] is 25.1 to 158 nM. Further, the pKi in assay [2] was 7.50 to 8.40.
On to `COCc1cccc(-c2n[nH]cc2-c2ccc3ncc(N4CCC(N5CCN(C)CC5)CC4)cc3n2)c1` [Compound 14-2, 2-[3-(3-(methoxymethyl)phenyl]-1H-pyrazol-4-yl]-7-[4-(4-methylpiperazin-1-yl)-1-piperidyl]-1,5-naphthyridine], for which the IC50 in assay [1] was 25.1 to 158 nM. In addition, the negative logarithm of the Ki (pKi) in assay [2] was 8.50 to 9.40.
Taken in the same sequence, the figures for `COCc1cccc(-c2n[nH]cc2-c2ccc3ncc(N4CCC(N5CCCC5)CC4)cc3n2)c1` [Compound 14-3, 2-[3-[3-(methoxymethyl)phenyl]-1H-pyrazol-4-yl]-7-(4-pyrrolidin-1-yl-1-piperidyl)-1,5-naphthyridine] were 25.1 to 158 nM and 7.50 to 8.40.
The corresponding values for `COCc1cccc(-c2n[nH]cc2-c2ccc3ncc(N4CCN(C(C)C)CC4)cc3n2)c1` [Compound 14-5, 7-(4-isopropylpiperazin-1-yl)-2-[3-[3-(methoxymethyl)phenyl]-1H-pyrazol-4-yl]-1,5-naphthyridine] are 25.1 to 158 nM and 7.50 to 8.40.
Taken in the same sequence, the figures for `COCc1cccc(-c2n[nH]cc2-c2ccc3ncc(N4CCC(N)C4)cc3n2)c1` (stereo not drawn) [Compound 14-6, 1-[6-[3-[3-(methoxymethyl)phenyl]-1H-pyrazol-4-yl]-1,5-naphthyridin-3-yl]pyrrolidin-3-amine] were 25.1 to 158 nM and 8.50 to 9.40.
Turning to `COCc1cccc(-c2n[nH]cc2-c2ccc3ncc(N4CCC(N(C)C)CC4)cc3n2)c1` [Compound 14-7, 1-[6-[3-[3-(methoxymethyl)phenyl]-1H-pyrazol-4-yl]-1,5-naphthyridin-3-yl]-N,N-dimethyl-piperidin-4-amine], in assay [1], the IC50 was 25.1 to 158 nM. Further, in assay [2], the pKi was 7.50 to 8.40.
Consider `CNCCn1cc(-c2cnc3ccc(-c4c[nH]nc4-c4cccc(COC)c4)nc3c2)cn1` [Compound 14-8, 2-(4-(6-(3-(3-(methoxymethyl)phenyl)-1H-pyrazol-4-yl)-1,5-naphthyridin-3-yl)-1H-pyrazol-1-yl)-N-methylethan-1-amine], for which, in assay [1], the IC50 was 25.1 to 158 nM. Moreover, in assay [2], the pKi is 9.50 to 10.40.
The corresponding values for `COCc1cccc(-c2n[nH]cc2-c2ccc3ncc(-c4cn[nH]c4)cc3n2)c1` [Compound 14-9, 2-[3-[3-(methoxymethyl)phenyl]-1H-pyrazol-4-yl]-7-(1H-pyrazol-4-yl)-1,5-naphthyridine] are no more than 20 nM and 8.50 to 9.40.
The corresponding values for `CNCCn1ccc(-c2cnc3ccc(-c4c[nH]nc4-c4cccc(COC)c4)nc3c2)n1` [Compound 14-10, 2-[3-[6-[3-[3-(methoxymethyl)phenyl]-1H-pyrazol-4-yl]-1,5-naphthyridin-3-yl]pyrazol-1-yl]-N-methyl-ethanamine] are 25.1 to 158 nM and 8.50 to 9.40.
Taken in the same sequence, the figures for `COCc1cccc(-c2n[nH]cc2-c2ccc3ncc(-c4cnn(CC5CNC5)c4)cc3n2)c1` [Compound 14-11, 7-[1-(azetidin-3-ylmethyl)pyrazol-4-yl]-2-[3-[3-(methoxymethyl)phenyl]-1H-pyrazol-4-yl]-1,5-naphthyridine] were 25.1 to 158 nM and 9.50 to 10.40.
As to `COCc1cccc(-c2n[nH]cc2-c2ccc3ncc(C4=CCC(N)CC4)cc3n2)c1` (stereo not drawn) [Compound 14-12, 4-[6-[3-[3-(methoxymethyl)phenyl]-1H-pyrazol-4-yl]-1,5-naphthyridin-3-yl]cyclohex-3-en-1-amine], the IC50 in assay [1] is 25.1 to 158 nM. The pKi in assay [2] was 8.50 to 9.40.
The corresponding values for `COCc1cccc(-c2n[nH]cc2-c2ccc3ncc(-c4cnn(CCN)c4)cc3n2)c1` [Compound 14-13, 2-[4-[6-[3-[3-(methoxymethyl)phenyl]-1H-pyrazol-4-yl]-1,5-naphthyridin-3-yl]pyrazol-1-yl]ethanamine] are 25.1 to 158 nM and 9.50 to 10.40.
Taken in the same sequence, the figures for `COCc1cccc(-c2n[nH]cc2-c2ccc3ncc(C4=CCC(N(C)C)CC4)cc3n2)c1` (stereo not drawn) [Compound 14-14, 4-(6-(3-(3-(methoxymethyl)phenyl)-1H-pyrazol-4-yl)-1,5-naphthyridin-3-yl)-N,N-dimethylcyclohex-3-en-1-amine] were 25.1 to 158 nM and 9.50 to 10.40.
As to `CNCCn1cc(-c2cnc3ccc(-c4c[nH]nc4-c4cccc(COC)c4)nc3c2)nn1` [Compound 14-15, 2-(4-(6-(3-(3-(methoxymethyl)phenyl)-1H-pyrazol-4-yl)-1,5-naphthyridin-3-yl)-1H-1,2,3-triazol-1-yl)-N-methylethan-1-amine], in assay [1], the IC50 is 25.1 to 158 nM. Moreover, the negative logarithm of the Ki (pKi) in assay [2] was 8.50 to 9.40.
Taken in the same sequence, the figures for `COCc1cccc(-c2n[nH]cc2-c2ccc3ncc(N4CCNCC4)cc3n2)c1` [Compound 14-16, 2-[3-[3-(methoxymethyl)phenyl]-1H-pyrazol-4-yl]-7-piperazin-1-yl-1,5-naphthyridine] were 200 to 1260 nM and 7.50 to 8.40.
Take `COCc1cccc(-c2n[nH]cc2-c2ccc3ncc(NCCN4CCN(C(C)C)CC4)cc3n2)c1` [Compound 14-17, N-[2-(4-isopropylpiperazin-1-yl)ethyl]-6-[3-[3-(methoxymethyl)phenyl]-1H-pyrazol-4-yl]-1,5-naphthyridin-3-amine]: the IC50 in assay [1] is 200 to 1260 nM. The pKi in assay [2] is 7.50 to 8.40.
Consider `COCc1cccc(-c2n[nH]cc2-c2ccc3ncc(-c4cnn([C@H]5CCCC[C@H]5N)c4)cc3n2)c1` [Compound 14-18, (1R,2S)-2-[4-[6-[3-[3-(methoxymethyl)phenyl]-1H-pyrazol-4-yl]-1,5-naphthyridin-3-yl]pyrazol-1-yl]cyclohexanamine], for which, in assay [1], the IC50 is 25.1 to 158 nM. Also, the pKi in assay [2] was 9.50 to 10.40.
The corresponding values for `COCc1cccc(-c2[nH]cnc2-c2ccc3ncc(NCCN4CCNCC4)cc3n2)c1` [Compound 15-1, 6-(5-(3-(methoxymethyl)phenyl)-1H-imidazol-4-yl)-N-(2-(piperazin-1-yl)ethyl)-1,5-naphthyridin-3-amine] are 200 to 1260 nM and 7.50 to 8.40.
Taken in the same sequence, the figures for `COCc1cccc(-c2[nH]cnc2-c2ccc3ncc(NCCN4CCN(C(C)C)CC4)cc3n2)c1` [Compound 15-2, N-[2-(4-isopropoylpiperazin-1-yl)ethyl]-6-[5-[3-(methoxymethyl)phenyl]-1H-imidazol-4-yl]-1,5-naphthyridin-3-amine] were 200 to 1260 nM and 7.50 to 8.40.
Taken in the same sequence, the figures for `CNCCn1cc(-c2cnc3ccc(-c4nc[nH]c4-c4cccc(COC)c4)nc3c2)cn1` [Compound 15-3, 2-(4-(6-(5-(3-(methoxymethyl)phenyl)-1H-imidazol-4-yl)-1,5-naphthyridin-3-yl)-1H-pyrazol-1-yl)-N-methylethan-1-amine] were 25.1 to 158 nM and 9.50 to 10.40.

By pKi is commonly meant the Ki on a negative log10 scale, so that one unit is a factor of ten.
